The values below come from patent publication US11918582B2 (RAPT Therapeutics, Inc., priority 2021, dated 2024).

Where a name gives a salt, the structure may show the parent alone.

The target of the assay is T1, human HPK1 (MAP4K1) (Homo sapiens, UniProt Q92918).
T1 construct: Recombinant human HPK1 kinase domain was obtained from ThermoFisher (Cat. #PV6357) and SignalChem (Cat. #M23-11G); purchased ThermoFisher; SignalChem PV6357; M23-11G
T1 sequence (Q92918 17-274 limits assumed): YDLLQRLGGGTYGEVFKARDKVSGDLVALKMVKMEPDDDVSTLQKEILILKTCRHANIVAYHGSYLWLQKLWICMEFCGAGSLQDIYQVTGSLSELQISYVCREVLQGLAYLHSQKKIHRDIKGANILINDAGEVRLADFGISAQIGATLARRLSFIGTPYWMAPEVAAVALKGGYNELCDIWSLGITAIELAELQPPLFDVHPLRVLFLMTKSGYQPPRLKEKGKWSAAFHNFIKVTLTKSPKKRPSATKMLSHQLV
Nature of the assay: Biochemical assay for activity against HPK1 (ADP-Glo, MBP substrate). The note with it: recombinant human HPK1 kinase domain, 1 nM enzyme, ADP-Glo luminescence. In short, it runs like this: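 IC50s come from ADP-Glo luminescence after a 2 h room-temperature reaction phosphorylating MBP in the presence of ATP. Compound was first preincubated 15 min with 1 nM HPK1 kinase domain, human recombinant. Buffer: 50 mM HEPES pH 7.5, 150 mM NaCl, 3 mM TCEP, 10 mM MgCl2, 0.005% Tween-20, 0.01% BSA.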
On the technique in general: ADP-Glo first removes unused ATP, then detects ADP through luciferase.

By IC50 is commonly meant the concentration that gives 50% inhibition. For `COc1cc2c(cc1Nc1ncc3cnn([C@H]4CC[C@H](CO)CC4)c3n1)CN(CCF)CC2` [Example 169, [4-[6-[[2-(2-fluoroethyl)-6-methoxy-3,4-dihydro-1H-isoquinolin-7-yl]amino]pyrazolo[3,4-d]pyrimidin-1-yl]cyclohexyl]methanol], the IC50 is less than 100 nM.

Take `COc1cc2c(cc1Nc1ncc3c(C)nn(C[C@@H]4CCCN4C(C)=O)c3n1)CN(C)CC2` [Example 115, (S)-1-(2-((6-((6-methoxy-2-methyl-1,2,3,4-tetrahydroisoquinolin-7-yl)amino)-3-methyl-1H-pyrazolo[3,4-d]pyrimidin-1-yl)methyl)231yrrolidine-1-yl)ethan-1-one]: the IC50 lay in the range of 100 to 250 nM.

Take `CN1CCc2ccc(Nc3ncc4cnn([C@H]5CCOC5)c4n3)cc2C1` [Example 19, (S)-2-methyl-N-(1-(tetrahydrofuran-3-yl)-1H-pyrazolo[3,4-d]pyrimidin-6-yl)-1,2,3,4-tetrahydroisoquinolin-7-amine]: the IC50 is less than 100 nM. Consider `CN1CCc2c(cc(Nc3ncc4cnn([C@@H]5CCC[C@@H](C(N)=O)C5)c4n3)cc2C(F)(F)F)C1` [Example 180, (1R,3R)-3-(6-((2-methyl-5-(trifluoromethyl)-1,2,3,4-tetrahydroisoquinolin-7-yl)amino)-1H-pyrazolo[3,4-d]pyrimidin-1-yl)cyclohexane-1-carboxamide], for which the IC50 is less than 100 nM. For `COc1cc2c(cc1Nc1ncc3cnn(CCC(C)(C)O)c3n1)CN(C)CC2` [Example 85, 4-[6-[(6-methoxy-2-methyl-3,4-dihydro-1H-isoquinolin-7-yl)amino]pyrazolo[3,4-d]pyrimidin-1-yl]-2-methyl-butan-2-ol], the IC50 is less than 100 nM.

Consider `CCOC(=O)[C@@H]1CCC[C@H](n2ncc3cnc(Nc4cc5c(cc4OC)CCN(C)C5)nc32)C1` (relative stereo) [Example 21, ethyl cis-3-(6-((6-methoxy-2-methyl-1,2,3,4-tetrahydroisoquinolin-7-yl)amino)-1H-pyrazolo[3,4-d]pyrimidin-1-yl)cyclohexane-1-carboxylate], for which the IC50 was less than 100 nM. For `COc1cc2c(cc1Nc1ncc3cnn(CCNS(C)(=O)=O)c3n1)CN(C)CC2` [Example 88, N-[2-[6-[(6-methoxy-2-methyl-3,4-dihydro-1H-isoquinolin-7-yl)amino]pyrazolo[3,4-d]pyrimidin-1-yl]ethyl]methanesulfonamide], the IC50 is less than 100 nM.

For the compound `COc1cc2c(cc1Nc1ncc3cnn(C[C@@H]4[C@@H](C)CCN4C(C)=O)c3n1)CN(C)CC2` (single isomer, unassigned) [Example 148], the IC50 was less than 100 nM. As for `COc1cc2c(cc1Nc1ncc3cnn([C@H]4CCC[C@H](C(N)=O)C4)c3n1)CN(C)CC2` [Example 31, (1S,3S)-3-(6-((6-methoxy-2-methyl-1,2,3,4-tetrahydroisoquinolin-7-yl)amino)-1H-pyrazolo[3,4-d]pyrimidin-1-yl)cyclohexane-1-carboxamide], the IC50 was less than 100 nM. Regarding `COc1cc2c(cc1Nc1ncc3cnn([C@@H]4CCC[C@H](CO)C4)c3n1)CN(C)CC2` (relative stereo) [Example 22, cis-3-(6-((6-methoxy-2-methyl-1,2,3,4-tetrahydroisoquinolin-7-yl)amino)-1H-pyrazolo[3,4-d]pyrimidin-1-ylcyclohexyl)methanol], the IC50 is less than 100 nM. In the case of `COc1cc2c(cc1Nc1ncc3cnn(CCC(N)=O)c3n1)CN(C)CC2` [Example 86, 3-[6-[(6-methoxy-2-methyl-3,4-dihydro-1H-isoquinolin-7-yl)amino]pyrazolo[3,4-d]pyrimidin-1-yl]210ropenamide] it was less than 100 nM; in that of `COc1cc2c(cc1Nc1ncc3cnn(CCN(C)C(C)=O)c3n1)CN(C)CC2` [Example 91, N-[2-[6-[(6-methoxy-2-methyl-3,4-dihydro-1H-isoquinolin-7-yl)amino]pyrazolo[3,4-d]pyrimidin-1-yl]ethyl]-N-methyl-acetamide], 100 to 250 nM. Take `COc1cc2c(cc1Nc1ncc3cnn([C@H]4C[C@H](CNS(C)(=O)=O)C4)c3n1)CN(C)CC2` [Example 121, N-((trans-3-(6-((6-methoxy-2-methyl-1,2,3,4-tetrahydroisoquinolin-7-yl)amino)-1H-pyrazolo[3,4-d]pyrimidin-1-yl)cyclobutyl)methyl)methanesulfonamide trifluoroacetate]: the IC50 is less than 100 nM.

Regarding `CN1CCc2ccc(Nc3ncc4cnn(C5CCCOC5)c4n3)cc2C1` (stereo not shown) [Example 15, 2-methyl-N-(1-(tetrahydro-2H-pyran-3-yl)-1H-pyrazolo[3,4-d]pyrimidin-6-yl)-1,2,3,4-tetrahydroisoquinolin-7-amine], the IC50 was less than 100 nM. With `CO[C@H]1CC[C@H](n2ncc3cnc(Nc4ccc5c(c4)CN(C)CC5)nc32)CC1` [Example 35, N-(1-((1r,4r)-4-methoxycyclohexyl)-1H-pyrazolo[3,4-d]pyrimidin-6-yl)-2-methyl-1,2,3,4-tetrahydroisoquinolin-7-amine], the IC50 is less than 100 nM. Consider `COc1cc2c(cc1Nc1ncc3cnn(C[C@H]4CN(S(C)(=O)=O)CCO4)c3n1)CN(C)CC2` [Example 128, (S)-6-methoxy-2-methyl-N-(1-((4-(methylsulfonyl)morpholin-2-yl)methyl)-1H-pyrazolo[3,4-d]pyrimidin-6-yl)-1,2,3,4-tetrahydroisoquinolin-7-amine trifluoroacetate], for which the IC50 was less than 100 nM. `COc1cc2c(cc1Nc1ncc3cnn(C[C@H]4C[C@H]4CO)c3n1)CN(C)CC2` (relative stereo) [Example 205, (cis-2-((6-((6-methoxy-2-methyl-1,2,3,4-tetrahydroisoquinolin-7-yl)amino)-1H-pyrazolo[3,4-d]pyrimidin-1-yl)methyl)cyclopropyl)methanol]: the IC50 is less than 100 nM. For the compound `COc1cc2c(cc1Nc1ncc3cnn(C4CCC(CO)CC4)c3n1)CN(C)CC2` (stereo in doubt) [Example 64, cis-[4-[6-[(6-methoxy-2-methyl-3,4-dihydro-1H-isoquinolin-7-yl)amino]pyrazolo[3,4-d]pyrimidin-1-yl]cyclohexyl]methanol], the IC50 is less than 100 nM.

On to `COc1nc2c(cc1Nc1ncc3cnn([C@@H]4CCC[C@@H](C(N)=O)C4)c3n1)CN(C)CC2` [Example 181, (1R,3R)-3-(6-((2-methoxy-6-methyl-5,6,7,8-tetrahydro-1,6-naphthyridin-3-yl)amino)-1H-pyrazolo[3,4-d]pyrimidin-1-yl)cyclohexane-1-carboxamide Mesylate], for which the IC50 is less than 100 nM. In the case of `COc1cc2c(cc1Nc1ncc3cnn(CCCO)c3n1)CN(C)CC2` [Example 96, 3-[6-[(6-methoxy-2-methyl-3,4-dihydro-1H-isoquinolin-7-yl)amino]pyrazolo[3,4-d]pyrimidin-1-yl]propan-1-ol], the IC50 was less than 100 nM.

Regarding `COc1nc2c(cc1Nc1ncc3cnn([C@H]4CC[C@H](CO)CC4)c3n1)CN(C)CC2` [Example 170], the IC50 was less than 100 nM.

With `COc1cc2c(cc1Nc1ncc3cnn(C4CCCN(S(C)(=O)=O)C4)c3n1)CN(C)CC2` (stereo not shown) [Example 108, 6-methoxy-2-methyl-N-(1-(1-(methylsulfonyl)piperidin-3-yl)-1H-pyrazolo[3,4-d]pyrimidin-6-yl)-1,2,3,4-tetrahydroisoquinolin-7-amine], the IC50 is less than 100 nM. Regarding `COc1cc2c(cc1Nc1ncc3cnn([C@H]4CCC[C@H](O)C4)c3n1)CN(C)CC2` (racemic) [Example 44, rac-(trans)-3-(6-((6-methoxy-2-methyl-1,2,3,4-tetrahydroisoquinolin-7-yl)amino)-1H-pyrazolo[3,4-d]pyrimidin-1-yl)cyclohexan-1-ol], the IC50 was less than 100 nM. With `CN1CCc2ccc(Nc3ncc4cnn(C5CCNCC5)c4n3)cc2C1` [Example 16, 2-methyl-N-(1-(piperidin-4-yl)-1H-pyrazolo[3,4-d]pyrimidin-6-yl)-1,2,3,4-tetrahydroisoquinolin-7-amine hydrochloride], the IC50 was less than 100 nM. Turning to `COc1cc2c(cc1Nc1ncc3cnn(CC4CC(CO)C4)c3n1)CN(C)CC2` (stereo not shown) [Example 61, (3-((6-((6-methoxy-2-methyl-1,2,3,4-tetrahydroisoquinolin-7-yl)amino)-1H-pyrazolo[3,4-d]pyrimidin-1-yl)methyl)cyclobutyl)methanol], the IC50 was less than 100 nM. Regarding `CC(=O)N1CCC[C@H]1Cn1ncc2cnc(Nc3cc4c(cc3C)CCN(C)C4)nc21` [Example 183, (S)-1-(2-((6-((2,6-dimethyl-1,2,3,4-tetrahydroisoquinolin-7-yl)amino)-1H-pyrazolo[3,4-d]pyrimidin-1-yl)methyl)pyrrolidin-1-yl)ethan-1-one], the IC50 is less than 100 nM. `COc1cc2c(cc1Nc1ncc3cnn([C@H]4CC[C@H](OC)CC4)c3n1)CN(C)CC2` [Example 47, 6-methoxy-N-(1-(trans-4-methoxycyclohexyl)-1H-pyrazolo[3,4-d]pyrimidin-6-yl)-2-methyl-1,2,3,4-tetrahydroisoquinolin-7-amine]: the concentration for half-maximal inhibition (IC50) was less than 100 nM. In the case of `COc1cc2c(cc1Nc1ncc3cnn(C(C)C(C)(C)C#N)c3n1)CN(C)CC2` (stereo not shown) [Example 151, 3-(6-((6-methoxy-2-methyl-1,2,3,4-tetrahydroisoquinolin-7-yl)amino)-1H-pyrazolo[3,4-d]pyrimidin-1-yl)-2,2-dimethylbutanenitrile hydrochloride], the half-inhibitory concentration (IC50) is less than 100 nM.
